This assay relates to MuERV env and gag mRNA. Kind of assay: qRT-PCR of MuERV env and gag transcripts in donor clone s2E. Format: cell-based, mouse. To be noted: s2E P1 donors, Aza 200 nM or Dec 100 nM, then 5 days without drug, vs DMSO. How it is done: To inhibit methyltransferases, s2E P1 donor cells were treated for three days with methyltransferase inhibitors 5-Azacytidine (Aza) 200 nM, Decitabine (Dec) 100 nM or DMSO as solvent control. Subsequently, the cells were cultured in the absence of the drugs for 5 days. Pre-treated donor cells were subsequently cocultured with recipient cells as described above to monitor aggregate induction efficiency in recipient N2a NM-GFP^sol cells. Cell lysates of donor cells were also analyzed for MuERV Env and Gag expression levels by western blot. To increase DNA methylation, the s2E donor clone (P21) was treated with methyl group donors L-methionine (L-M) 80 mM, Betaine (B) 80 mM, Choline chloride (CC) 20 mM or medium control for 6 days. MuERV Env and Gag protein levels were analyzed by western blot. Subsequently, cells were cocultured with recipient cells for 16 h. The percentage of aggregate containing recipient cells was compared to the percentage of aggregate bearing recipients cocultured with solvent-treated donors. […]
Total RNA from cell pellets or brain samples was isolated using the RNeasy Mini Kit or RNeasy Lipid Tissue Mini Kit (Qiagen). RNA concentration and quality were determined using the Agilent 2100 Bioanalyzer System. For a 20 μl reaction, 1 μg RNAs were reversely transcribed to cDNA using the iScript™ cDNA Synthesis Kit (Bio-Rad). For a 20 μl qRT-PCR reaction, 2 μl of synthesized cDNA was used as template. For qRT-PCR of murine env AA037244.2 and gag AID54952, custom designed TaqMan probes were used (Thermo Fisher Scientific). Pre-designed TaqMan probes by the company for murine pan-env, xpr1, mcat-1 and gapdh as housekeeping control and TaqMan™ Gene Expression Master Mix (Thermo Fisher Scientific) were used. qRT-PCR using TaqMan probes was performed as described in the manufacturer's instruction. For qRT-PCR analyses of HERV family members, primers were designed using the corresponding cDNA sequences (cf. SEQ ID NOs. 73-92). PowerUP SYBR™ Green Master Mix (Thermo Fisher Scientific) was mixed with different cDNAs and corresponding primers as indicated in the instruction. The fast cycling mode was used for all primers.
On the technique in general: Quantitative PCR measures a nucleic acid by following its amplification.

1 molecule from patent US20220332799A1, “HERV INHIBITORS FOR USE IN TREATING TAUOPATHIES” (Deutsches Zentrum Für Neurodegenerative Erkrankungen E.V. …, priority 2019, published 2022) can be followed below.

Each structure is given as a SMILES string.

Regarding `Nc1ncn([C@H]2C[C@H](O)[C@@H](CO)O2)c(=O)n1` [Decitabine, 5-aza-2′-deoxycytidine], the “expression of total env and gag mRNA” value is “increased expression of total env and gag mRNA”. Also, the “expression of total env and gag mRNA” value (listed as 5-aza-2′-deoxycytidine) is “Increased expression of MuERV env (f), gag (h) and pan-env (g) transcripts”.
